Measured values reported in patent US7169604B1, “Method for PR-39 peptide mediated selective inhibition of IκBα degradation” (Beth Israel Deaconess Medical Center, priority 1998, dated 2007).
Ends that are not written are not given here.

Tests used:
HSP70 = HSP70 expression by Western blotting; assay type: cell-based, human
IκBα [1] = assay: IκBα protein levels in ECV304 cells by Western blotting; assay type: cell-based, human; settings: ECV cells, 2 hr exposure, 100 or 50 nM
Method: For IκBα expression studies, normally proliferating wild type ECV304 cells (ECV) or ECV-PR-39 and ECV-E4 cells were lysed in the loading buffer, subjected to electrophoresis on 10% SDS-PAGE gel and transferred to a PVDF membrane. IκBα expression was then determined by Western blotting with anti-IκBα antibody (Santa Cruz, Inc.). ECV304 cells treated for 2 hr with 10 μM of lactacystin (LC) were used as control.
Western blotting of ECV cell lysate was carried out following 2 hr exposure to buffer (0) or 100 or 50 nM of PR-39. […] Clearly, exposure of wild type ECV304 cells to the synthetic PR-39 peptide led to a dose-dependent increase in IκBα levels.

ECV304 cells = assay: Cell growth in culture (Coulter cell counts); assay type: cell-based, human; settings: 10 μM, 48 hours
Method: Prolonged exposure to proteasome inhibitors tend to induce apoptosis in cell culture. To assess the potential cytotoxicity of PR-39, ECV304 cells were cultured in the presence of 10 μM of PR-39, MG132 or lactacystin.
50,000 ECV304 cells were plated in 6 well plates in 10% FBS-M199 and synchronized by serum deprivation in 0.5% FBS-DMEM for 48 hr. At the end of that time, cell culture medium was changed to 10% FBS-M199 and 10 μM of PR-39, lactacystin or buffer (control) were added. Forty eight hours later cell counts were determined using a Coulter Counter (Coulter Instruments, Inc.). All experiments were performed in triplicate and repeated 2 times (mean±SD).

U937 cells = assay: Proteasome-dependent degradation of total cellular proteins (35S Met pulse-chase); assay type: cell-based, human; settings: 10 μM, 1 hr chase, chloroquin 45 μM, after 16 hr metabolic labeling
Method: Therefore the extent of degradation of long-lived cell proteins before or following exposure was compared to either PR-39 or MG132. The result is given by FIG. 3A.
Exponentially proliferating U937 cells were grown in 10% FBS-RPMI 1640 methionine-free medium supplemented with 200 μCi ^35S Met for 16 hr. Cells were then washed with complete RPMI 1640 medium 3 times and cultured in 10% FBS-RPMI (chase) in the presence of 10 μM of either PR-39 or MG132 or an equal volume of PBS. Chloroquin (45 μM) was added to all cultures to prevent the lysosomal protein degradation. 1 hr later the cells were lysed, and TCA soluble ^35S counts were measured in a liquid scintillation counter (LKB). All experiments were carried out in triplicate and repeated three times. The data are shown as mean±standard deviation.

NFκB = NFκB electromobility shift assay in mouse pancreas, caerulein-induced pancreatitis; assay type: in vivo; settings: 10 mg/kg i.v. 1 hour before caerulein; 30 min later
[2] = biological target: T1, α7 subunit of the 20S proteasome (Mus musculus, UniProt O70435); assay: Yeast two-hybrid binding of PR-39 to α7 and its fragments; settings: growth of lacZ+ colonies on selective medium; deletion mutants of mouse α7
T1 construct: made in house; host or cells: yeast (Y190 for the screen, CG1945 for the deletion analysis)
T1 sequence (O70435 1-255): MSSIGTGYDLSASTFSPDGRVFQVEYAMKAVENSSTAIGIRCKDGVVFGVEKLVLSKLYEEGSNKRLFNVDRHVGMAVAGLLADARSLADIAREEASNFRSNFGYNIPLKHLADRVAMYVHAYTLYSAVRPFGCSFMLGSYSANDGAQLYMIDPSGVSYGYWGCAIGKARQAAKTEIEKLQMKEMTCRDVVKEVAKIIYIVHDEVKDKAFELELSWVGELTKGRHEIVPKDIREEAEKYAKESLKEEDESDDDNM
Source text: Two-hybrid screening was done using Clontech MATCHMAKER GAL4 System 2 (Clontech). cDNA of porcine PR39 peptide corresponding to the 4th exon (amino acids 131 to 169) was subcloned into pAS2-1 vector as bait. Mouse embryo 3T3 MATCHMAKER cDNA library (Clontech) was screened in the yeast Y190 strain. Plasmids from HIS3/LacZ positive clones were sequenced and co-transformed with bait plasmid back into the Y190 strain to confirm the interaction.
To identify possible intracellular targets of PR-39 peptide action, a yeast two-hybrid screen of mouse CDNA library was performed using the unique 4th exon DNA sequence of porcine PR-39 gene as “bait”. […] All four clones encoded overlapping identical cDNA sequences which are highly homologous to the sequence of the human α7 (HC8) subunit of the 20S proteasome (GeneBank accession AF055983).
Deletion mutants of the mouse α7 subunit were cloned into yeast two-hybrid vector, and the extent of growth of lacZ+ colonies on selective medium following co-transformation with PR-39 construct in the yeast CG1945 was determined.

IκBα [3] = assay: IκBα degradation in mouse pancreas, caerulein-induced acute pancreatitis; assay type: in vivo; settings: 10 mg/kg i.v. 1 hour before caerulein 50 μg/kg i.v.; 30 min later
Method: Male mice weighing 20-25 g (ICR, Charles River Laboratories, Wilmington, Mass.) were pretreated with PR-39 (10 mg/kg, i.v.) or physiological saline 1 hour before injecting 50 μg/kg i.v. of caerulein (Research Plus, Bayonne, N.J.) to induce acute pancreatitis. 30 min later the animals were sacrificed in a CO2 chamber and a 75-100 mg piece of pancreas was removed for Western blotting and NFκB gel shift assays.
As empirically shown, induction of acute pancreatitis by treatment with the cholecystokinin analog caerulein leads to the prompt disappearance of IκBα (FIG. 2B) and activation of NFκB-dependent transcription in the pancreas (FIG. 2C).

IκBα [4] = biological target: T2, IκBα (Homo sapiens, UniProt P25963); assay: In vitro IκBα ubiquitination assay with HeLa cell extract; settings: cell free system, two different concentrations
T2 sequence (P25963 1-317): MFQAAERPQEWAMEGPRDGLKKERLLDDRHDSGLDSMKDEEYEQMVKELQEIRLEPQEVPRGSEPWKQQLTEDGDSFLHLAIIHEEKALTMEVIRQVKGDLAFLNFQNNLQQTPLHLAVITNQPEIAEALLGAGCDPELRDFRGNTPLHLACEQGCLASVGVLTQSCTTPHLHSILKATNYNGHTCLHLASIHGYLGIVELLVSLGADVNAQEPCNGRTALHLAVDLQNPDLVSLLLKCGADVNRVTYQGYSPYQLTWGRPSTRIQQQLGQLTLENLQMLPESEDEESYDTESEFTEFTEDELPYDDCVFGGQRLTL
Method: HeLa cells were harvested by centrifugation at 4,000 rpm. The packed cell volume was estimated, and the cells osmotically lysed by the addition of 5 volumes of hypotonic buffer (10 mM Tris-Cl, pH 7.9, 1.5 mM MgCl2, 10 mM KCl, 0.2 mM PMSF, 0.5 mM DTT). The mixture was incubated on ice for 10 minutes, then homogenized with 12 strokes of a Dounce homogenizer (B Type pestle). The crude lysate was centrifuged for 15 minutes at 4,000 rpm, followed by recentrifugation of the supernatant at 100,000×g for 30 minutes. This supernatant was concentrated by the addition of solid (NH4)2SO4 to 80% saturation, stirred at 4° C. for 30 minutes and centrifuged for 15 minutes at 12,000 rpm. The precipitate was resuspended in 1/5 volume of 20 mM Tris-Cl pH7.6, 20 mM KCl, 5 mM MgCl 2, 1 mM DTT, 0.5 mM PMSF, 5 μM Chymostatin and 20 μM E64, and dialyzed against >500 volumes of 20 mM Tris-Cl pH 7.6, 20 mM KCl, 5 mM MgCl2, 1 mM DTT, 10% glycerol at 4° C. overnight and stored at −70° C. until use.
PR-39 or control peptides were also added to individual reactions. […] The samples were then heated for 5 minutes at 95° C. and analyzed by SDA-PAGE on 4-15% acrylamide gradient gels (BioRad, Hurcules, Calif.). After electrophoresis, the gels were incubated with gentle stirring in 30% methanol 10% acetic acid, dried and analyzed using a Fuji phosphorimager. […]

p21, cyclin E and c-fos = assay: Levels of proteasome-regulated proteins by Western blotting; assay type: cell-based, human
Method: This is shown by FIG. 3C.
The level of proteasome-regulated cell cycle repressor p21, cyclin E and c-fos proteins were determined by Western blotting in U937 cells pretreated with various amounts of PR-39 and then exposed to TNF-α (1 ng/ml).

Sequence: RRRPRPPYLPRPRPPPFFPPRLPPRIPPGFPPRFPPRFP [PR-39]
- HSP70 expression (HSP70; U937 cells, 1 μM, 3 hr exposure): lack of induction of HSP70 expression
- HSP70 levels (HSP70; cultured ECV304 cells, 10 μM): failed to stimulate HSP70 accumulation
- IκBα protein levels (IκBα [1]): dose-dependent increase in IκBα protein levels
- cell counts (ECV304 cells): lack of significant growth inhibition
- inhibition of total cell protein degradation (U937 cells): little or no effect
- NFκB gel shift in mouse pancreas (NFκB): almost complete disappearance of NFκB gel shift
- binding of PR-39 to α7 and its fragments [2]: only the full length a7 construct was able to bind to PR-39
- IκBα in mouse pancreas (Western blotting) (IκBα [3]): preservation of IκBα
- IκBα ubiquitination in vitro (IκBα [4]): failed to affect IκBα ubiquitination
- levels of p21, cyclin E and c-fos (p21, cyclin E and c-fos; ECV304 cells): failed to demonstrate any effect
- proteasome-mediated degradation of p21, cyclin E and c-fos (p21, cyclin E and c-fos; U937 cells pretreated with various amounts, then TNF-α 1 ng/ml): lack of PR-39 dependent inhibition
